Data taken from patent publication US20040002069A1, “Hepatic gene expression profiling of streptozotocin-induced diabetes” (The Regents of the University of California, priority 2002, published 2004).

Experiments:
[1] = system: hepatic gene expression; assay: Hepatic gene expression profiling of streptozotocin-induced diabetes (Affymetrix Mu11KsubA/Mu11KsubB arrays); type: in vivo, Swiss-Webster mice
Description: (§1) Mice and treatment. Female, 8-month old Swiss-Webster mice were purchased from Jackson Laboratories. Diabetes was induced by three weekly intraperitoneal injections of streptozotocin (STZ; 10 mg/100 g body weight) in 50 mM sodium citrate, pH 4.5. […] Only mice with blood glucose levels higher than 3 mg/ml were used. Mice injected with equivalent volumes of sodium citrate at the same times served as controls. Mice were sacrificed one week after the last injection. Mice were fasted for 24 h before sacrifice.
Measurement of Specific mRNA Levels. Total liver RNA was isolated from frozen tissue fragments using TRI Reagent (Molecular Research Center, Inc., Cincinnati, Ohio) as described previously (Cao et al., Proc. Natl. Acad. Sci. U.S. A. 98:10630-10635 (2001)). Specific mRNA levels were measured using the Affymetrix Mu11KsubA and Mu11KsubB high-density oligonucleotide arrays using standard Affymetrix protocols as described (Cao et al., Proc. Natl. Acad. Sci. U.S. A. 98:10630-10635 (2001)). Briefly, cDNA was prepared from total RNA using Superscript Choice System with a primer containing oligo(dT) and the T7 RNA polymerase promoter sequence. Biotinylated cRNA was synthesized from purified cDNA using the Enzo BioArray High Yield RNA Transcript Labeling Kit (Enzo Biochem), and CRNA purified using RNeasy mini columns (Qiagen, Chatsworth, Calif.). An equal amount of cRNA from each animal was separately hybridized to Mu11KsubA and Mu11ksubB high-density oligonucleotide arrays. The arrays were hybridized for 16 h at 45° C. After hybridization, arrays were washed, stained with streptavidin-phycoerythrin, and scanned using a Hewlett-Packard GeneArray Scanner.
Data Analysis and Statistics. Image analysis and data quantification were performed using the Affymetrix Microarray Suite 5.0. Affymetrix Mu11KsubA and Mu11KsubB arrays contain targets for more than 11,000 mouse genes and expressed sequence tags (ESTs). Each gene or EST is represented on the array by 20 perfectly matched (PM) oligonucleotides and 20 mismatched (MM) control probes that contain a single central-base mismatch. The signal intensities of PM and MM were used to calculate a discrimination score, R, which is equal to (PM−MM)/(PM+MM). A detection algorithm utilized R to generate a detection p-value and assign a Present, Marginal or Absent call using the Wilcoxon signed rank test (Wilcoxon F., Biometrics 1:80-83 (1945); Affymetrix, Inc., New Statistical Algorithms for Monitoring Gene Expression on GeneChip Probe Arrays, Technical Notes 1, Part No. 701097 Rev. 1 (2001)). Only genes that were “Present” in at least 2 out of 3 arrays per experimental group were considered for further analysis. A signal algorithm calculated the relative level of expression of each transcript using the One-Step Tukey's Biweight Estimate (Affymetrix, Inc., New Statistical Algorithms for Monitoring Gene Expression on GeneChip Probe Arrays, Technical Notes 1, Part No. 701097 Rev. 1 (2001)). This procedure generates a robust weighted mean that is relatively insensitive to outliers, even when they are extreme. Genes with a signal intensity lower than the mean array signal intensity in 2 or more of the 3 arrays in either experimental group were eliminated from the analysis. All arrays were scaled to a target intensity of 2500. To identify differentially expressed genes, each of the 3 control samples was compared with each of the 3 STZ-treated samples, resulting in 9 pairwise comparisons. […] Difference values (PM-MM) between the control and STZ-treated arrays were used to generate a one-sided p-value for each set of probes. Default boundaries between significant and not significant p-values were used (Affymetrix, Inc., New Statistical Algorithms for Monitoring Gene Expression on GeneChip Probe Arrays, Technical Notes 1, Part No. 701097 Rev. 1 (2001)). […]

[2] = Blood glucose measurements after streptozotocin injections; type: in vivo, Swiss-Webster mice; conditions: three weekly intraperitoneal injections, 10 mg/100 g body weight; one week after the third injection
Description: as §1

CN(N=O)C(=O)N[C@H]1C(O)O[C@H](CO)[C@@H](O)[C@@H]1O (mixture of isomers) [STZ, streptozotocin]
increases: expression of RAB 1 ([1]; liver of SID mice) | expression of hepatic mRNA for insulin-like growth factor binding protein 2 ([1]; liver of SID mice) | expression of inter-alpha trypsin inhibitor, heavy chain 3 ([1]; liver of SID mice) | expression of lactate dehydrogenase 1 ([1]; liver of SID mice) | expression of the flavin-containing monooxygenase 5 gene ([1]; liver of SID mice) | expression of the gene for apolipoprotein H ([1]; liver of SID mice) | expression of two cytochrome P450, 3a subfamily members ([1]; liver of SID mice)
1.9 fold: FC RIKIEN cDNA 1810034D23 gene ([1]; GenBank AA066610, liver, STZ vs control mice) | FC mp72b03.rl Soares thymus cDNA clone IMAGE:574733, similar to cyclophilin ([1]; GenBank AA124572, liver, STZ vs control mice) | FC Protease (prosome, macropain) 28 subunit, alpha (Psme1) mRNA ([1]; GenBank AA165782, liver, STZ vs control mice) | FC RIKEN cDNA 2310009NO5 gene (2310009N05Rik) ([1]; GenBank AA260798, liver, STZ vs control mice) | FC vb90b12.rl Soares mouse 3NbMS cDNA clone IMAGE:764255 ([1]; GenBank AA285530, liver, STZ vs control mice) | FC Splicing factor, arginine/serine-rich 5 (SRp40, HRS) (Sfrs5) mRNA ([1]; GenBank AA388848, liver, STZ vs control mice) | FC Retinal taurine transporter; solute carrier family 6, member 6 (Slc6a6) mRNA ([1]; GenBank AA472795, liver, STZ vs control mice) | FC RAB9, member RAS oncogene family (Rab9) mRNA ([1]; GenBank AA518955, liver, STZ vs control mice) | FC Interferon alpha responsive gene, 15 kDa (Ifrg15-pending) mRNA ([1]; GenBank AA608036, liver, STZ vs control mice) | FC ATP synthase, H+ transporting, mitochondrial F0 complex, subunit b, isoform 1 (Atp5f1) mRNA ([1]; GenBank W08392, liver, STZ vs control mice) | FC Destrin (Dsn) mRNA ([1]; GenBank W08453, liver, STZ vs control mice) | FC DEAD/H (Asp-Glu-Ala-Asp/His) box polypeptide 1 mRNA ([1]; GenBank W13878, liver, STZ vs control mice) | FC RIKEN cDNA 2410038A03 gene ([1]; GenBank W30137, liver, STZ vs control mice)
3.6 fold: FC Bifunctional aminoacyl-tRNA synthetase mRNA ([1]; GenBank AA048927, liver, STZ vs control mice) | FC Phosphoenolpyruvate carboxykinase 1, cytosolic (Pck1) mRNA ([1]; GenBank AA110781, liver, STZ vs control mice)
2.5 fold: FC CathepsinL (Ctsl) mRNA ([1]; GenBank AA096813, liver, STZ vs control mice) | FC NADH dehydrogenase (ubiquinone) 1 beta subcomplex 6 mRNA ([1]; GenBank AA277720, liver, STZ vs control mice) | FC C77421 Mouse 3.5-dpc blastocyst cDNA clone J0030G04, similar to Mouse B10.VL30LTR gene ([1]; GenBank C77421, liver, STZ vs control mice)
−2.2 fold: FC Hepcidin antimicrobial peptide (Hamp) mRNA ([1]; GenBank W12913, liver, STZ vs control mice)
2.7 fold: FC RIKEN cDNA 1110004C05 gene ([1]; GenBank W12941, liver, STZ vs control mice)
3.5 fold: FC Heat shock protein, 74 kDa, A (Hspa9A) mRNA ([1]; GenBank AA138378, liver, STZ vs control mice) | FC Golgi reassembly stacking protein 2 (Grs2-pending) mRNA ([1]; GenBank W13835, liver, STZ vs control mice)
2.4 fold: FC RIKEN cDNA 1810030E05 gene ([1]; GenBank W64827, liver, STZ vs control mice) | FC Cytochrome c oxidase, subunit VIIa 3 (Cox7a3) mRNA ([1]; GenBank W91222, liver, STZ vs control mice)
−14.0 fold: FC Stearoyl-Coenzyme A desaturase 1 (Sed1) mRNA ([1]; GenBank AA137436, liver, STZ vs control mice)
−2.8 fold: FC Hepatocyte growth factor activator HGFA (Hgfac) mRNA ([1]; GenBank W12681, liver, STZ vs control mice)
decreases: expression of alcohol dehydrogenase 1 ([1]; liver of SID mice) | expression of complement component 4 ([1]; liver of SID mice) | expression of cytochrome P450, 1a2 gene ([1]; liver of SID mice) | expression of cytochrome P450, 2b13 gene ([1]; liver of SID mice) | expression of cytochrome P450, 2c29 gene ([1]; liver of SID mice) | expression of sorbitol dehydrogenase 1 ([1]; liver of SID mice) | expression of thioether S-methyltransferase ([1]; liver of SID mice)
−2.6 fold: FC RIKEN cDNA 1110061M03 gene ([1]; GenBank W21013, liver, STZ vs control mice)
2.1 fold: FC X-box binding protein 1 (Xbp1) mRNA ([1]; GenBank AA016424, liver, STZ vs control mice) | FC Activating transcription factor 5 (Atf5) mRNA ([1]; GenBank AA270796, liver, STZ vs control mice) | FC Nuclear receptor coactivator 3 (Ncoa3) mRNA ([1]; GenBank AA390043, liver, STZ vs control mice) | FC Ring finger protein 4 (Rnf4) mRNA ([1]; GenBank AA600461, liver, STZ vs control mice) | FC mc25d02.rl Soares mouse cDNA clone IMAGE:349539 ([1]; GenBank W3021 1, liver, STZ vs control mice)
2.6 fold: FC Similar to eukaryotic translation initiation factor 4 gamma, 1 (0610008L05Rik) ([1]; GenBank AA038437, liver, STZ vs control mice)
increased: expression of Cytochrome c oxidase ([1]; liver of SID mice) | expression of Glutathione S-transferase μ2 ([1]; liver of SID mice) | expression of Glutathione S-transferase π2 ([1]; liver of SID mice) | expression of NADH dehydrogenase 1 ([1]; liver of SID mice) | expression of arginase 1 ([1]; liver of SID mice) | expression of argininosuccinate synthetase 1 ([1]; liver of SID mice)
−2.0 fold: FC Isopentenyl-diphosphate delta-isomerase mRNA ([1]; GenBank AA267683, liver, STZ vs control mice) | FC Sirtuin 2 (Sirt2) mRNA ([1]; GenBank AA472476, liver, STZ vs control mice)
1.8 fold: FC Carbon catabolite repression 4 homolog (S. cerevisiae) (Ccr4) mRNA ([1]; GenBank AA172909, liver, STZ vs control mice) | FC Erythroid differentiation regulator (Edr) mRNA ([1]; GenBank AA174883, liver, STZ vs control mice) | FC Nuclear receptor coactivator 4 (Ncoa4) mRNA ([1]; GenBank AA217659, liver, STZ vs control mice) | FC Splicing factor 3b, subunit 1, 155 kDa (Sf3b1) mRNA ([1]; GenBank AA277153, liver, STZ vs control mice) | FC Expressed sequence AA960392 ([1]; GenBank AA592283, liver, STZ vs control mice) | FC RIKEN cDNA 2700059D21 gene ([1]; GenBank AA655730, liver, STZ vs control mice) | FC Expressed sequence C79645 ([1]; GenBank C79645, liver, STZ vs control mice) | FC Tubulin cofactor a (Tbca) mRNA ([1]; GenBank W18904, liver, STZ vs control mice)
−2.4 fold: FC Angiotensinogen (Agt) mRNA ([1]; GenBank W17473, liver, STZ vs control mice)
Decreased: expression of corticosteroid binding globulin ([1]; liver of SID mice)
−2.5 fold: FC Cytochrome P450, 2c40 (Cyp2c40) mRNA ([1]; GenBank AA137659, liver, STZ vs control mice) | FC Expressed sequence A1266885 ([1]; GenBank AA250708, liver, STZ vs control mice)
2.0 fold: FC RIKEN cDNA 1110002E23 gene ([1]; GenBank AA000467, liver, STZ vs control mice) | FC Proteasome (prosome, macropain) subunit, alpha type 4 (Psma4) mRNA ([1]; GenBank AA008321, liver, STZ vs control mice) | FC Cysteine-rich protein 2 (Csrp2) mRNA ([1]; GenBank AA028770, liver, STZ vs control mice) | FC Poly A binding protein, cytoplasmic 1 (Pabpc1) mRNA ([1]; GenBank AA106783, liver, STZ vs control mice) | FC Argininosuccinate lyase (As1) mRNA ([1]; GenBank AA237297, liver, STZ vs control mice) | FC Cellular repressor of E1A-stimulated genes (Creg) mRNA ([1]; GenBank AA271265, liver, STZ vs control mice) | FC RIKEN cDNA 1810020N21 gene ([1]; GenBank AA538556, liver, STZ vs control mice) | FC vq87g01.r1 Knowles Solter mouse blastocyst B3 cDNA clone IMAGE: 1109328 ([1]; GenBank AA666984, liver, STZ vs control mice) | FC Coagulation factor XII (Hageman factor) (F12) mRNA ([1]; GenBank W34349, liver, STZ vs control mice) | FC Succinate dehydrogenase complex, subunit A, flavoprotein (Fp) (Sdha) mRNA ([1]; GenBank W53390, liver, STZ vs control mice) | FC mf48c06.rl Soares mouse embryo cDNA clone IMAGE:408298 ([1]; GenBank W85397, liver, STZ vs control mice)
−4.6 fold: FC Ribonuclease, Rnase A family 4 (Rnase4) mRNA ([1]; GenBank AA289858, liver, STZ vs control mice)
−2.9 fold: FC mb19d12.rl Soares mouse cDNA clone IMAGE:329879, similar to ACTIN, AORTIC SMOOTH MUSCLE ([1]; GenBank W12899, liver, STZ vs control mice) | FC CD 81 antigen (Cd81) mRNA ([1]; GenBank W98255, liver, STZ vs control mice)
47: number of known genes with a change in expression ([1]; liver, control vs STZ-treated mice, more than 11,000 genes and ESTs assessed, 1.8-fold or greater)
induced: mRNA for heat shock 70 kD protein 5 ([1]; liver of SID mice) | mRNA for hypoxia inducible factor 1 ([1]; liver of SID mice) | mRNA for prolyl 4-hydroxylase, beta polypeptide ([1]; liver of SID mice)
Increased: expression of a proteasome subunit ([1]; liver of SID mice) | expression of hepatic histidine ammonia lyase ([1]; liver of SID mice)
diabetic: diabetic state by blood glucose measurements [2]
